Here are results for two compounds from article PMC2998338 (Neuropharmacology, 2010).

Each structure is given as a SMILES string. Values joined by “and” are separate entries in the source; they are usually repeats but may differ in a detail not shown here. Equal values may be shown once. Read-outs that look alike come from different tables or passages of the source. A value given as a limit tells only on which side of the number the result lay.

The subject of experiment [1] is neuronal nAChRs. Nature of the experiment: Whole-cell patch-clamp, time course of inhibition. It is filed as cell-based. To be noted: co-application with ACh following pre-exposure.
Experiment [2] relates to male ICR mice. Nature of the experiment: Tail-flick test, compound alone. Type of experiment: in vivo. To be noted: for ED50 Tail-flick, percent effect at the individual dose: tested 15 min after injection; for change of tail-flick latencies by the compound itself: highest dose tested. Background: Hot-plate and tail-flick tests time the reaction to a heat stimulus.
In experiment [3] the test system is male ICR mice. In words: Tail-flick test, antagonism of nicotine-induced antinociception. Type of experiment: in vivo. To be noted: s.c., 15 min before nicotine 2.5 mg/kg, tested 5 min after nicotine; (confidence limits).
The target of experiment [4] is rat α3β4 nAChRs (Rattus norvegicus, UniProt P04757+P12392). The settings on record: for α3β4 nH: Hill coefficient, mean.
The target of experiment [5] is human α4β2 neuronal nAChRs (Homo sapiens, UniProt P17787+P43681). To be noted: for α4β2 nH: Hill coefficient, mean.
In experiment [6] the test system is male ICR mice. In words: Hot-plate test, compound alone. To be noted: tested 15 min after injection. It is filed as in vivo.
The target in experiment [7] is rat α7 nAChRs (Rattus norvegicus, UniProt Q05941). The settings on record: for α7 nH: Hill coefficient, mean.
Experiment [8] concerns male ICR mice. Nature of the experiment: Hot-plate test, antagonism of nicotine-induced antinociception. It is filed as in vivo. To be noted: at 10 mg/kg s.c., 15 min before nicotine.
The subject of experiment [9] is male ICR mice. Nature of the experiment: Body temperature, antagonism of nicotine-induced hypothermia. Type of experiment: in vivo. To be noted: for AD50 Body temperature, percent effect at the individual dose: 15 min before nicotine, tested 30 min after nicotine; for block of nicotine-induced hypothermia: mice.
Experiment [10] deals with male ICR mice. Nature of the experiment: Body temperature. It is filed as in vivo.
Experiment [11] deals with α7 nAChRs (Rattus norvegicus, UniProt Q05941). Nature of the experiment: [125I]IodoMLA binding assay, rat cerebral cortex. To be noted: read-out: Ki, [125I]MLA binding sites, 70 pM [125I]iodoMLA.
For experiment [12], the target named is NMDA receptors. The settings on record: read-out: IC50, NMDA receptors; ref MacDonald et al., 1990; Morris et al., 2005; cited from earlier work.
[13] abbreviates: holding potential −100 to +60 mV, n=3.

Chain of human α4β2 neuronal nAChRs (P43681 29-627 limits assumed): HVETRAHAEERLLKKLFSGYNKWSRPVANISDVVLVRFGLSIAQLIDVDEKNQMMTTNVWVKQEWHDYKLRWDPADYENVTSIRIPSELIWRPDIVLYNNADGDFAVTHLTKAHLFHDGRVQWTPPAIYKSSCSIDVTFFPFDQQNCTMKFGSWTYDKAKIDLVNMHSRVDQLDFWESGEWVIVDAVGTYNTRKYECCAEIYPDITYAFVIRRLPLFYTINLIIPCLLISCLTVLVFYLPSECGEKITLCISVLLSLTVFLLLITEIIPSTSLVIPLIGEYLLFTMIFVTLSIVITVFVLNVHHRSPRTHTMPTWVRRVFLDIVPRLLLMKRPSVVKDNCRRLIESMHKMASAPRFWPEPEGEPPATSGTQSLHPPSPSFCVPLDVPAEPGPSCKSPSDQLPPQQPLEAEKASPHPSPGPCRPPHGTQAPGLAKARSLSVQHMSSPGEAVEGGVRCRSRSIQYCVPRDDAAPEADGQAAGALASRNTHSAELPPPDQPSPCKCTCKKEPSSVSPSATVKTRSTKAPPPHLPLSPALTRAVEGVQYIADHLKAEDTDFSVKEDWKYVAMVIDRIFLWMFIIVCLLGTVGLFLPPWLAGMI
Chain of human α4β2 neuronal nAChRs (P17787 26-502): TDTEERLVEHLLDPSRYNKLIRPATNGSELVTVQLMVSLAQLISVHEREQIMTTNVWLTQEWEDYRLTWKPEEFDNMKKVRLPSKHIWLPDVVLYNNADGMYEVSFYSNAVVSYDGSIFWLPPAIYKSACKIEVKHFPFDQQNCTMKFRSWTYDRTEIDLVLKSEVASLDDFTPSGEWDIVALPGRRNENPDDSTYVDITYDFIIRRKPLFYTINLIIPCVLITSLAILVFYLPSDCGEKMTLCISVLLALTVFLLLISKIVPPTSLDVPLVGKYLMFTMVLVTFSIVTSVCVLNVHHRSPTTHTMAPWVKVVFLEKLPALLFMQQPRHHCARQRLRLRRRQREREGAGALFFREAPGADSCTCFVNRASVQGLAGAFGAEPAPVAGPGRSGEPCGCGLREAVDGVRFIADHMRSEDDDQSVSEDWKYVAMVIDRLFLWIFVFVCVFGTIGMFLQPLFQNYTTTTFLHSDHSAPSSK
Chain of rat α7 nAChRs (Q05941 23-502): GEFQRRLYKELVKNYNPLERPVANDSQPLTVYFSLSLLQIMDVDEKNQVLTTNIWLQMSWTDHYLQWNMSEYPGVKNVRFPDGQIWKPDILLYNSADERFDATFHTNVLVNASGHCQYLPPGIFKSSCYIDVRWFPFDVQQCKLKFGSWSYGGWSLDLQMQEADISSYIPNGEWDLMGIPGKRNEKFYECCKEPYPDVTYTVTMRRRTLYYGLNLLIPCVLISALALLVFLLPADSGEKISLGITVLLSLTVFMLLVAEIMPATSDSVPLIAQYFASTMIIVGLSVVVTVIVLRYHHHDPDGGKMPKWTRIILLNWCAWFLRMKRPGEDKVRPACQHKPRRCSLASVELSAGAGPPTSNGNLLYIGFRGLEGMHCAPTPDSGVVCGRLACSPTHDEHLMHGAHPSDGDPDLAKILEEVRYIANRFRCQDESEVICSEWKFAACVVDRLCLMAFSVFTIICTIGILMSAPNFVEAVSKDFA
Chain of rat α3β4 nAChRs (P04757 26-499): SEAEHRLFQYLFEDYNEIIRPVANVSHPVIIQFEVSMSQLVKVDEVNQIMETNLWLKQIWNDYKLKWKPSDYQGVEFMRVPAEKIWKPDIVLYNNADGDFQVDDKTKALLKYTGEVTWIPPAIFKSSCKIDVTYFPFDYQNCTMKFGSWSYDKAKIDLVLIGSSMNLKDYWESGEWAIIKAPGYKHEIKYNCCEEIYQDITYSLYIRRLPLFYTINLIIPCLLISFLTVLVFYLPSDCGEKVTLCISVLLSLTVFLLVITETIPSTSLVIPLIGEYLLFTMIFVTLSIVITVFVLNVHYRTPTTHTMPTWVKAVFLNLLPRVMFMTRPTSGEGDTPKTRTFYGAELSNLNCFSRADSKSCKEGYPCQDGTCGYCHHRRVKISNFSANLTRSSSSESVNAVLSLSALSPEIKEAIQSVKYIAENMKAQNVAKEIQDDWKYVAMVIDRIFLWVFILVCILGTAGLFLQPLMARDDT
Chain of rat α3β4 nAChRs (P12392 21-495): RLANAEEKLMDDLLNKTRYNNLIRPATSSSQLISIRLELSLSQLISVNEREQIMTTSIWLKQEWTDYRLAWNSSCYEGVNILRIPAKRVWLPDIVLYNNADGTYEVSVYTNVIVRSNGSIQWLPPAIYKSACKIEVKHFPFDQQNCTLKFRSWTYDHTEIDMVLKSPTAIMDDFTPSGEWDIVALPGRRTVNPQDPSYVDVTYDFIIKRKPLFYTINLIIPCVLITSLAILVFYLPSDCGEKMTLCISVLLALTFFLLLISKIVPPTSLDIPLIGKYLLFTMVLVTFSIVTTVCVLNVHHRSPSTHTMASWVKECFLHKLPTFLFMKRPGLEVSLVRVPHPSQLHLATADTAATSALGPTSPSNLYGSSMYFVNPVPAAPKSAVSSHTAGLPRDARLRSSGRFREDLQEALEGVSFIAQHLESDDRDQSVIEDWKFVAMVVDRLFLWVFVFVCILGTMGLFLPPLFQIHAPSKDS
Chain of α7 nAChRs (Q05941 23-502): as the sequence (Q05941 23-502) above

On to `CN(C)c1ccc2c(c1)CC1CC(Cc3ccccc3)N(C)C21` (stereo not drawn) [HDMP, 1,2,3,3a,4,8b-hexahydro-2-benzyl-6-N,N-dimethylamino-1-methylindeno[1,2,-b]pyrrole], for which, in experiment [1], the “time in which the inhibitory effect develops” value is 40 to 60 s. Further, in experiment [2] (at 10 mg/kg s.c.), the “ED50 Tail-flick, percent effect at the individual dose” value worked out at 2%@10. In addition, the “change of tail-flick latencies by the compound itself” value in experiment [2] is “did not significantly change”. In experiment [3], the “AD50 Tail-flick” value is 0.008 (0.004–0.015) mg/kg. In experiment [4] (0.1 μM, −80 mV, example cell), the “effect on whole-cell currents, α3β4” value is “no effect”. In addition, in experiment [4], the “α3β4 nH” value is given as 1.06. The “fold less potent than PCP in inhibition of α3β4 nAChR function” value in [4] (based on IC50s 28.98 and 6.35 μM) came out at 4.6 fold. Besides, the “voltage-dependence of inhibitory effect, α3β4” value in experiment [4] (setting [13]) is “voltage-independent”. The IC50 in experiment [4] (read-out: α3β4 IC50) is 29 µM. In addition, the “effect on whole-cell currents, α4β2” value in experiment [5] (0.1 μM, −80 mV, example cell) is “no effect”. Besides, the “α4β2 nH” value in experiment [5] is given as 1.15. Besides, in experiment [5] (setting [13]), the “voltage-dependence of inhibitory effect, α4β2” value is on record as “voltage-independent”. For the same compound, the IC50 in [5] (read-out: α4β2 IC50) was determined as 25.1 µM. In [6] (at 10 mg/kg s.c.), the “ED50 Hot-Plate, percent effect at the individual dose” value is recorded as 8%@10. In addition, the “inhibition of whole-cell currents, α7” value in [7] (0.1 μM, −80 mV, example cell) was 55%. Moreover, the “α7 nH” value in experiment [7] was 0.73. Moreover, the “fold more potent than PCP in inhibition of α7 nAChRs” value in experiment [7] (based on IC50 values 1.25 and 0.07 μM) is recorded as 18 fold. Further, the “voltage-dependence of inhibitory effect, α7” value in experiment [7] (setting [13]) is given as “voltage-independent”. Also, in experiment [7] (ratio of patch-clamp IC50s), the “fold more potent at α7 than at α3β4 nAChRs” value is reported as 414 fold and the “fold more potent at α7 than at α4β2 nAChRs” value came to 357 fold. In addition, in experiment [8], the “AD50 Hot-Plate, percent effect (inhibition) at the individual dose” value is 20%@10. Moreover, the “AD50 Body temperature, percent effect at the individual dose” value in experiment [9] (at 10 mg/kg s.c.) is reported as 0%@10. Moreover, the “block of nicotine-induced hypothermia” value in experiment [9] is reported as “failed to block”. In addition, in [10] (at 10 mg/kg s.c.), the “ED50 Hypothermia, percent effect at the individual dose” value is listed as 0%@10. In [11], the Ki was more than 10 µM.
`c1ccc(C2(N3CCCCC3)CCCCC2)cc1` [PCP, phencyclidine, reference compound]: in [2] (at 5 mg/kg s.c.), the “ED50 Tail-flick, percent effect at the individual dose” value turned out to be 6%@5. In addition, in [2], the “change of tail-flick latencies by the compound itself” value was “did not significantly change”. Besides, the “AD50 Tail-flick” value in [3] is 1.1 (0.87–1.30) mg/kg. Further, the “α3β4 nH” value in experiment [4] came to 0.65. For the same compound, the IC50 was 6.4 µM and 6.35 µM in [4] (α3β4 IC50); 29 µM in experiment [5] (α4β2 IC50); approximately 1 µM in experiment [12]. The “α4β2 nH” value in [5] came out at 1.4. Besides, in [6] (at 5 mg/kg s.c.), the “ED50 Hot-Plate, percent effect at the individual dose” value was 5%@5. For the same compound, in experiment [7], the “α7 nH” value was determined as 0.97. In addition, in experiment [7] (ratio of patch-clamp IC50s), the “fold more potent at α7 than at α4β2 nAChRs” value turned out to be 23 fold. Also, the “AD50 Body temperature, percent effect at the individual dose” value in experiment [9] (at 5 mg/kg s.c.) is given as 0%@5. Besides, the “block of nicotine-induced hypothermia” value in [9] is “failed to block”. Also, the “ED50 Hypothermia, percent effect at the individual dose” value in [10] (at 5 mg/kg s.c.) turned out to be 5%@5.

A word on the IC50: it is the concentration at which inhibition is half-maximal. One may read the Ki as a measure of affinity in units of concentration, obtained from inhibition or displacement.
